Assay: xn = mol fraction of the nth substance listed
Conditions: for mass density / viscosity: 100 kPa, Liquid; for mass density: Vibrating tube method; for surface tension liquid-gas: Drop volume

CC12CC3CC(C1)CC(C)(C3)C2 [1,3-dimethyladamantane] + CCCCCCCO
Conditions	mass density [kg/m3]	surface tension liquid-gas [mN/m]	viscosity [mPa·s]
293.15 K, x2 = 0	901.58	–	3.764
293.15 K, x2 = 0.1001	895.5	–	3.692
293.15 K, x2 = 0.199	889.11	–	3.788
293.15 K, x2 = 0.2998	882.35	–	3.972
293.15 K, x2 = 0.3997	875.32	–	4.181
293.15 K, x2 = 0.4997	867.82	–	4.522
293.15 K, x2 = 0.6002	859.93	–	4.92
293.15 K, x2 = 0.7	851.41	–	5.419
293.15 K, x2 = 0.7996	842.45	–	5.924
293.15 K, x2 = 0.8999	832.71	–	6.447
298.15 K, x2 = 0	898.04	27.88	3.345
298.15 K, x2 = 0.1001	891.87	27.82	3.271
298.15 K, x2 = 0.199	885.48	–	3.342
298.15 K, x2 = 0.1997	–	27.69	–
298.15 K, x2 = 0.2998	878.72	27.48	3.475
298.15 K, x2 = 0.3997	871.68	27.35	3.686
298.15 K, x2 = 0.4997	864.19	27.15	3.909
298.15 K, x2 = 0.6002	856.3	27.02	4.218
298.15 K, x2 = 0.7	847.82	26.79	4.611
298.15 K, x2 = 0.7996	838.88	26.56	5.028
298.15 K, x2 = 0.8999	829.21	26.36	5.454
303.15 K, x2 = 0	894.48	–	3.004
303.15 K, x2 = 0.1001	888.23	–	2.913
303.15 K, x2 = 0.199	881.84	–	2.963
303.15 K, x2 = 0.2998	875.06	–	3.066
303.15 K, x2 = 0.3997	868.01	–	3.238
303.15 K, x2 = 0.4997	860.52	–	3.414
303.15 K, x2 = 0.6002	852.65	–	3.657
303.15 K, x2 = 0.7	844.21	–	3.967
303.15 K, x2 = 0.7996	835.28	–	4.304
303.15 K, x2 = 0.8999	825.66	–	4.649
308.15 K, x2 = 0	890.92	–	2.711
308.15 K, x2 = 0.1001	884.58	–	2.609
308.15 K, x2 = 0.199	878.15	–	2.642
308.15 K, x2 = 0.2998	871.37	–	2.721
308.15 K, x2 = 0.3997	864.33	–	2.862
308.15 K, x2 = 0.4997	856.84	–	3
308.15 K, x2 = 0.6002	848.97	–	3.194
308.15 K, x2 = 0.7	840.56	–	3.439
308.15 K, x2 = 0.7996	831.66	–	3.711
308.15 K, x2 = 0.8999	822.07	–	3.992
313.15 K, x2 = 0	887.35	–	2.458
313.15 K, x2 = 0.1001	880.92	–	2.347
313.15 K, x2 = 0.199	874.46	–	2.366
313.15 K, x2 = 0.2998	867.67	–	2.427
313.15 K, x2 = 0.3997	860.62	–	2.542
313.15 K, x2 = 0.4997	853.13	–	2.653
313.15 K, x2 = 0.6002	845.27	–	2.807
313.15 K, x2 = 0.7	836.88	–	3.001
313.15 K, x2 = 0.7996	828.01	–	3.22
313.15 K, x2 = 0.8999	818.46	–	3.45
318.15 K, x2 = 0	883.77	–	2.237
318.15 K, x2 = 0.1001	877.24	–	2.121
318.15 K, x2 = 0.199	870.75	–	2.129
318.15 K, x2 = 0.2998	863.95	–	2.175
318.15 K, x2 = 0.3997	856.89	–	2.269
318.15 K, x2 = 0.4997	849.4	–	2.359
318.15 K, x2 = 0.6002	841.54	–	2.481
318.15 K, x2 = 0.7	833.18	–	2.636
318.15 K, x2 = 0.7996	824.33	–	2.813
318.15 K, x2 = 0.8999	814.8	–	3.002
323.15 K, x2 = 0	880.19	–	2.045
323.15 K, x2 = 0.1001	873.55	–	1.925
323.15 K, x2 = 0.199	867.02	–	1.925
323.15 K, x2 = 0.2998	860.2	–	1.958
323.15 K, x2 = 0.3997	853.14	–	2.035
323.15 K, x2 = 0.4997	845.65	–	2.107
323.15 K, x2 = 0.6002	837.79	–	2.205
323.15 K, x2 = 0.7	829.46	–	2.329
323.15 K, x2 = 0.7996	820.62	–	2.472
323.15 K, x2 = 0.8999	811.12	–	2.626
328.15 K, x2 = 0	876.6	–	1.876
328.15 K, x2 = 0.1001	869.84	–	1.754
328.15 K, x2 = 0.199	863.27	–	1.745
328.15 K, x2 = 0.2998	856.43	–	1.769
328.15 K, x2 = 0.3997	849.36	–	1.833
328.15 K, x2 = 0.4997	841.86	–	1.891
328.15 K, x2 = 0.6002	834.01	–	1.97
328.15 K, x2 = 0.7	825.68	–	2.069
328.15 K, x2 = 0.7996	816.87	–	2.184
328.15 K, x2 = 0.8999	807.4	–	2.311
333.15 K, x2 = 0	873.01	–	1.728
333.15 K, x2 = 0.1001	866.11	–	1.603
333.15 K, x2 = 0.199	859.5	–	1.589
333.15 K, x2 = 0.2998	852.63	–	1.605
333.15 K, x2 = 0.3997	845.56	–	1.658
333.15 K, x2 = 0.4997	838.05	–	1.704
333.15 K, x2 = 0.6002	830.19	–	1.767
333.15 K, x2 = 0.7	821.88	–	1.847
333.15 K, x2 = 0.7996	813.08	–	1.938
333.15 K, x2 = 0.8999	803.64	–	2.044
